{"source": "paper PMC10005750", "about": "(Molecules, 2023)", "key": {"[1]": {"experiment": "Pharmacokinetic interaction study after oral administration of DPZ and TAD, alone or in combination, in rats", "conditions": "rat; for CL/F (apparent systemic clearance): tadalafil 0.3 mg/kg oral, n = 3, mean ± SD", "method": "The rat plasma was stored at −70 °C. The plasma samples were thawed at room temperature and then centrifuged at 1800× g (4 °C) for 8 min before pipetting. Using a micropipette, 30 µL of the plasma sample was transferred into a polypropylene microtube, and 10 µL of IS working solution was added to each sample. Further, 0.2 mL of acetonitrile was then added and vortexed for 1 min. […] The supernatant was transferred to an analytical vessel, and 2 µL of the sample was injected into the LC-MS/MS system.\nRats were divided into three groups (n = 3): group 1, DPZ (3 mg/kg); group 2, TAD (0.3 mg/kg); and group 3, DPZ (3 mg/kg) combined with TAD (0.3 mg/kg). Animals were fasted overnight and allowed free access to water.\nThe peak plasma concentration, Cmax, and Tmax (the time to reach Cmax) for DPZ and TAD were calculated using individual plasma concentration–time profiles. […] The terminal half-life (T1/2) was calculated as ln 2/λz (λz is the elimination rate constant estimated by using the least-squares linear regression method of the terminal log-linear portion of the plasma concentration–time curve). The apparent clearance (CL/F) was calculated as CL/F = dose/AUC0-∞. The Mann–Whitney U test was used to determine the differences in the mean plasma concentration and PK profiles of DPZ and TAD between the single and combined administration groups. Statistical analysis was performed using SPSS Statistics (version 26.0; IBM SPSS Statistics for Windows, Armonk, NY, USA), and a p-value < 0.05 was considered statistically significant."}, "[2]": {"experiment": "Plasma sample stability at low and high QC under storage and handling conditions", "method": "Standard stock solutions of DPZ, TAD, and LPZ (IS) were prepared in methanol at a concentration of 100 µg/mL and stored at −20 °C. Working solutions were prepared by diluting the stock solutions with 50% methanol. The concentration of DPZ and TAD ranged from 1 to 200 ng/mL. […] The IS working solution was prepared by diluting the stock solution with 50% methanol to a concentration of 20 ng/mL. All working stock solutions were prepared and stored at −20 °C until use. Calibration standards and QC samples of DPZ and TAD in rat plasma were diluted with the corresponding working solutions and blank rat plasma. Drug-free plasma, that is, control (blank) plasma, stored in a deep freezer, was completely thawed at room temperature before use. Ten percent spiking with working DPZ and TAD stock solutions was performed in blank plasma. The spiked QC samples were stored at −70 °C for stability studies.\nStability analyses of the stock solutions were performed at room temperature for 3 h and under refrigerated conditions (4 °C) for 14 days. The stability of the plasma analytes was tested for low and high QC under pre-specified conditions: room temperature for 5 h, refrigeration (4 °C) for 14 days, autosampler (10 °C) for 20 h, four cycles of freezing-thawing, and finally frozen conditions (−70 °C) for 28 days for long-term stability."}, "[3]": {"conditions": "male, Sprague-Dawley, plasma, po"}, "[4]": {"conditions": "male, Sprague-Dawley, plasma, po, 0.3 mg/kg"}}, "data": [{"smiles": "CN1CC(=O)N2[C@H](c3ccc4c(c3)OCO4)c3[nH]c4ccccc4c3C[C@@H]2C1=O", "note": "[Tadalafil, tadalafil]", "values": [{"measurement": "Tmax", "setting": "[1]; [3]", "result": 30, "unit": "min"}, {"measurement": "half-life", "setting": "[1]; [3]", "result": "118 ± 12.7", "unit": "min"}, {"measurement": "AUC(0-inf)", "setting": "[1]; [4]", "result": "50.4 ± 23.6", "unit": "ng·h/mL"}, {"measurement": "AUC(0-t)", "setting": "[1]; [4]", "result": "47 ± 24.4", "unit": "ng·h/mL"}, {"measurement": "Cmax", "setting": "[1]; [4]", "result": "17.8 ± 6", "unit": "ng/mL"}, {"measurement": "MRT last", "setting": "[1]; [4]", "result": "2.53 ± 0.214", "unit": "h"}, {"measurement": "Tmax", "setting": "[1]; [4]", "result": 30, "unit": "min"}, {"measurement": "half-life", "setting": "[1]; [4]", "result": "91 ± 7.2", "unit": "min"}, {"measurement": "CL/F (apparent systemic clearance)", "setting": "[1]; alone", "result": "7.355 ± 4.516", "unit": "L/h"}, {"measurement": "CL/F (apparent systemic clearance)", "setting": "[1]; with DPZ 3 mg/kg", "result": "11.819 ± 9.852", "unit": "L/h"}, {"measurement": "Plasma sample stability (Mean ± SD, %)", "setting": "[2]; extracted rat plasma sample, autosampler (10 °C, 20 h), nominal 2 ng/mL", "result": "99.63 ± 6.03", "unit": "%"}, {"measurement": "Plasma sample stability (Mean ± SD, %)", "setting": "[2]; extracted rat plasma sample, autosampler (10 °C, 20 h), nominal 160 ng/mL", "result": "102.18 ± 3.98", "unit": "%"}, {"measurement": "Plasma sample stability (Mean ± SD, %)", "setting": "[2]; rat plasma, freeze-thaw (4 cycles), nominal 2 ng/mL", "result": "95.15 ± 2.69", "unit": "%"}, {"measurement": "Plasma sample stability (Mean ± SD, %)", "setting": "[2]; rat plasma, freeze-thaw (4 cycles), nominal 160 ng/mL", "result": "103.60 ± 1.55", "unit": "%"}, {"measurement": "Plasma sample stability (Mean ± SD, %)", "setting": "[2]; rat plasma, refrigeration (4 °C, 14 days), nominal 2 ng/mL", "result": "93.52 ± 3.03", "unit": "%"}, {"measurement": "Plasma sample stability (Mean ± SD, %)", "setting": "[2]; rat plasma, refrigeration (4 °C, 14 days), nominal 160 ng/mL", "result": "107.44 ± 5.73", "unit": "%"}, {"measurement": "Plasma sample stability (Mean ± SD, %)", "setting": "[2]; rat plasma, room temperature (5 h), nominal 2 ng/mL", "result": "95.75 ± 4.54", "unit": "%"}, {"measurement": "Plasma sample stability (Mean ± SD, %)", "setting": "[2]; rat plasma, room temperature (5 h), nominal 160 ng/mL", "result": "95.18 ± 0.41", "unit": "%"}, {"measurement": "Plasma sample stability (Mean ± SD, %)", "setting": "[2]; rat plasma, −70 °C (28 days), nominal 2 ng/mL", "result": "99.17 ± 3.88", "unit": "%"}, {"measurement": "Plasma sample stability (Mean ± SD, %)", "setting": "[2]; rat plasma, −70 °C (28 days), nominal 160 ng/mL", "result": "104.42 ± 4.78", "unit": "%"}, {"measurement": "stability in rat plasma under all examined conditions", "setting": "[2]; rat, plasma", "result": "stable"}]}]}
